Data from ChEMBL document CHEMBL5236598, “Lead Optimization and Avoidance of Metabolic-perturbing Motif Developing Novel Diarylpyrimidines as Potent HIV-1 NNRTIs” (J Med Chem, 2022).
Converted amounts (≈) assume the structure as drawn.

Key:
[1] = system: Human immunodeficiency virus 1; assay: Antiviral activity against HIV-1 RES056 harboring RT K103N/Y181C double mutant infected in human MT4 cells assessed as protection against virus-induced cytopathic effect incubated for 5 days by MTT assay; type: functional, organism-based; conditions: Human immunodeficiency virus 1, RES056, MT4, 120 h
[2] = Selectivity index, ratio of CC50 for cytotoxicity against human MT4 cells to EC50 for antiviral activity against HIV-1 RES056 harboring RT K103N/Y181C double mutant infected in human MT4 cells; type: toxicity, cell-based; conditions: read-out: Ratio CC50/EC50
[3] = system: Human immunodeficiency virus 1; assay: Antiviral activity against HIV-1 harboring RT Y188L mutant infected in human MT4 cells assessed as protection against virus-induced cytopathic effect incubated for 5 days by MTT assay; type: functional, organism-based; conditions: Human immunodeficiency virus 1, MT4, 120 h
[4] = system: Human immunodeficiency virus 1; assay: Antiviral activity against HIV-1 harboring RT K103N mutant infected in human MT4 cells assessed as protection against virus-induced cytopathic effect incubated for 5 days by MTT assay; type: functional, organism-based; conditions: Human immunodeficiency virus 1, MT4, 120 h
[5] = system: Human immunodeficiency virus 1; assay: Antiviral activity against HIV-1 harboring RT L100I mutant infected in human MT4 cells assessed as protection against virus-induced cytopathic effect incubated for 5 days by MTT assay; type: functional, organism-based; conditions: Human immunodeficiency virus 1, MT4, 120 h
[6] = system: Human immunodeficiency virus 1; assay: Antiviral activity against HIV-1 harboring RT E138K mutant infected in human MT4 cells assessed as protection against virus-induced cytopathic effect incubated for 5 days by MTT assay; type: functional, organism-based; conditions: Human immunodeficiency virus 1, MT4, 120 h
[7] = system: Human immunodeficiency virus 1; assay: Antiviral activity against wild type HIV-1 IIIB infected in human MT4 cells assessed as protection against virus-induced cytopathic effect incubated for 5 days by MTT assay; type: functional, organism-based; conditions: Human immunodeficiency virus 1, IIIB, MT4, 120 h
[8] = system: Human immunodeficiency virus 1; assay: Antiviral activity against HIV-1 harboring RT F227L/V106A double mutant infected in human MT4 cells assessed as protection against virus-induced cytopathic effect incubated for 5 days by MTT assay; type: functional, organism-based; conditions: Human immunodeficiency virus 1, MT4, 120 h
[9] = system: Human immunodeficiency virus 1; assay: Antiviral activity against HIV-1 harboring RT Y181C mutant infected in human MT4 cells assessed as protection against virus-induced cytopathic effect incubated for 5 days by MTT assay; type: functional, organism-based; conditions: Human immunodeficiency virus 1, MT4, 120 h
[10] = Cytotoxicity against human MT4 cells assessed as reduction in cell viability measured after 5 days by MTT assay; type: toxicity, cell-based; conditions: time 5 day
[11] = target: T1, Human immunodeficiency virus type 1 reverse transcriptase (Human immunodeficiency virus 1, UniProt Q72547); assay: Inhibition of wild type recombinant HIV-1 reverse transcriptase using biotin-labelled dNTPs as substrate assessed as inhibition of biotin-labelled UTP incorporation incubated for 1 hr by ELISA
[12] = Selectivity index, ratio of CC50 for cytotoxicity against human MT4 cells to EC50 for antiviral activity against wild type HIV-1 IIIB infected in human MT4 cells; type: toxicity, cell-based; conditions: read-out: Ratio CC50/EC50
[13] = Metabolic stability in human liver microsomes assessed as half life preincubated for 10 mins followed by NADPH regenerating system addition and measured after 2 hrs by LC-MS/MS analysis; type: ADME, Microsome; conditions: time 130 min
[14] = Aqueous solubility of compound at pH 7 at 0.1 to 10 mg; type: physicochemical; conditions: aqueous medium, dose 0.1-10 mg
[15] = target: T1, Human immunodeficiency virus type 1 reverse transcriptase; assay: Binding affinity to HIV-1 reverse transcriptase assessed as dissociation constant by SPR analysis
[16] = Aqueous solubility of compound at pH 2 at 0.1 to 10 mg; type: physicochemical; conditions: aqueous medium, dose 0.1-10 mg
[17] = Aqueous solubility of compound at pH 7.4 at 0.1 to 10 mg; type: physicochemical; conditions: aqueous medium, dose 0.1-10 mg
[18] = system: Human immunodeficiency virus 1; assay: Potency index, ratio of Etravirine EC50 to test compound EC50 for antiviral activity against HIV-1 harboring RT K103N mutant infected in human MT4 cells assessed as protection against virus-induced cytopathic effect incubated for 5 days by MTT assay; type: functional; conditions: time 5 day
[19] = system: Human immunodeficiency virus 1; assay: Potency index, ratio of Etravirine EC50 to test compound EC50 for antiviral activity against HIV-1 harboring RT E138K mutant infected in human MT4 cells assessed as protection against virus-induced cytopathic effect incubated for 5 days by MTT assay; type: functional; conditions: time 5 day

SMILES	EC50 [1] [nM]	selectivity ratio [2]	EC50 [7] [nM]	CC50 at 120 h [10] [nM]	selectivity ratio [12]	other results
N#C/C=C/c1cc(F)c(Oc2nc(Nc3ccc(C#N)c(F)c3)nc3c2COC3)c(F)c1	314	773	1.67	243000	145000	EC50 [3]: 214 nM; EC50 [4]: 2.41 nM; EC50 [5]: 6.9 nM; EC50 [6]: 3.45 nM; EC50 [8]: 384 nM; EC50 [9]: 13.9 nM; IC50 [11]: 30 nM
Cc1cc(C#N)cc(C)c1Oc1nc(Nc2ccc(C#N)cc2)nc(N)c1Br [ETRAVIRINE]	76.2	–	3.3	> 4610	–	EC50 [3]: 25.1 nM; EC50 [4]: 4.3 nM; EC50 [6]: 18.1 nM; EC50 [8]: 25.4 nM
C[C@]12CC[C@H]3[C@@H](CCC4=CC(=O)CC[C@@]43C)[C@@H]1CC[C@@H]2O [TESTOSTERONE]	–	–	–	–	–	half-life [13]: 11.1 min
Cc1cc(/C=C/C#N)cc(C)c1Oc1nc(Nc2ccc(C#N)c(F)c2)nc2c1COC2	53.3	857	2.22	45600	20600	EC50 [3]: 13.2 nM; solubility [14]: 12.3 µg/mL (≈ 28.8 µM); EC50 [4]: 2.87 nM; EC50 [5]: 3.04 nM; Kd [15]: 2500 nM; EC50 [6]: 9.77 nM; EC50 [8]: 19.8 nM; EC50 [9]: 10.2 nM; solubility [16]: 23.1 µg/mL (≈ 54 µM); solubility [17]: 5.7 µg/mL (≈ 13.3 µM); IC50 [11]: 50 nM
Cc1cc(C#N)cc(C)c1Oc1nc(NC2CCN(c3c(F)cc(N)cc3F)CC2)nc2ccsc12	> 5540	< 1	37.4	5450	146	–
Cc1cc(/C=C/C#N)cc(C)c1Oc1nc(NC2CCN(c3c(F)cc(N)cc3F)CC2)nc2ccsc12	1580	5	32	7880	246	–
Cc1cc(C#N)cc(C)c1Oc1nc(NC2CCN(c3c(F)cc(NS(N)(=O)=O)cc3F)CC2)nc2sccc12	> 3960	< 1	12.3	3960	322	–
Cc1cc(C#N)cc(C)c1Oc1nc(NC2CCN(c3ccc(N)cc3)CC2)nc2sccc12	1740	18	35.9	31000	864	–
Cc1cc(C#N)cc(C)c1Oc1nc(NC2CCN(c3c(F)cc([N+](=O)[O-])cc3F)CC2)nc2sccc12	> 211000	< 1	45.1	> 233000	> 5170	–
Cc1cc(/C=C/C#N)cc(C)c1Oc1nc(NC2CCN(c3c(F)cc(NS(N)(=O)=O)cc3F)CC2)nc2ccsc12	1940	10	37.1	20000	539	–
Cc1cc(-c2ccc(F)cc2)cc(C)c1Oc1nc(Nc2ccc(C#N)nc2)nc2sccc12	> 2230	< 1	802	2230	3	–
Cc1cc(C#N)cc(C)c1Oc1nc(NC2CCN(c3ccc(NS(N)(=O)=O)cc3)CC2)nc2sccc12	633	39	12.9	24900	1930	–
Cc1cc(-c2ccc(F)cc2)cc(C)c1Oc1nc(Nc2ccc(C#N)c(F)c2)nc2ccsc12	8600	11	695	97300	140	–
N#C/C=C/c1cc(F)c(Oc2nc(Nc3ccc(C#N)c(F)c3)nc3cc[nH]c23)c(F)c1	630	16	38	10200	268	–
Cc1cc(C#N)cc(C)c1Oc1nc(NC2CCN(c3c(F)cc(NS(N)(=O)=O)cc3F)CC2)nc2ccsc12	7510	2	35.3	12600	357	–
Cc1cc(/C=C/C#N)cc(C)c1Oc1nc(Nc2ccc(C#N)nc2)nc2c1COC2	71.7	2980	2.4	213000	88900	EC50 [3]: 44.6 nM; EC50 [4]: 1.34 nM; EC50 [5]: 6.64 nM; EC50 [6]: 3.23 nM; EC50 [8]: 110 nM; EC50 [9]: 9.75 nM; IC50 [11]: 40 nM
Cc1cc(/C=C/C#N)cc(C)c1Oc1nc(NC2CCN(c3ccc(N)cc3F)CC2)nc2ccsc12	876	26	31.3	23000	735	–
Cc1cc(C#N)cc(C)c1Oc1nc(NC2CCN(c3ccc([N+](=O)[O-])cc3F)CC2)nc2ccsc12	> 30300	< 1	32.1	740000	23100	–
Cc1cc(/C=C/C#N)cc(C)c1Oc1nc(NC2CCN(c3c(F)cc([N+](=O)[O-])cc3F)CC2)nc2ccsc12	7670	13	125	99500	794	–
Cc1cc(/C=C/C#N)cc(C)c1Oc1nc(NC2CCN(c3ccc([N+](=O)[O-])cc3F)CC2)nc2sccc12	1360	> 169	29.6	> 229000	> 7740	–
N#C/C=C/c1cc(F)c(Oc2nc(Nc3ccc(C#N)nc3)nc3ccsc23)c(F)c1	2200	22	1.79	47500	26500	EC50 [3]: > 47500 nM; EC50 [4]: 2.55 nM; EC50 [5]: 19.2 nM; EC50 [6]: 7.46 nM; EC50 [8]: 1450 nM; EC50 [9]: 66.5 nM; Ratio EC50 [18]: 2; Ratio EC50 [19]: 2; IC50 [11]: 40 nM
